Here are results for eight compounds from ChEMBL document CHEMBL5226308, “Amide-Amine Replacement in Indole-2-carboxamides Yields Potent Mycobactericidal Agents with Improved Water Solubility” (ACS Med Chem Lett, 2021).

Active and inactive are the calls of the source. No cut-off for these calls is given here.

The test system of experiment [1] is Mycobacterium tuberculosis variant bovis. Description: Inhibition of MmpL3 in Mycobacterium bovis BCG ATCC 35734 assessed as reduction in TDM level at 4XMIC90 treated for 1 hr followed by incubation with [14C]acetate for 1 to 3 hrs by thin layer chromatography. As to conditions: time 2-4 hrs.
Experiment [2] shares this test system. Description: Inhibition of MmpL3 in Mycobacterium bovis BCG ATCC 35734 assessed as increase in TMM level at 4XMIC90 treated for 1 hr followed by incubation with [14C]acetate for 1 to 3 hrs by thin layer chromatography. As to conditions: time 2-4 hrs.
The test system is the same in experiment [3]. Kind of experiment: Inhibition of MmpL3 C1932G/F644L mutant in Mycobacterium bovis BCG B47-4 assessed as reduction in TDM level at 1XMIC90 treated for 1 hr followed by incubation with [14C]acetate for 1 to 3 hrs by thin layer chromatography. As to conditions: time 2-4 hrs.
Experiment [4] has the same test system. Description: Inhibition of MmpL3 in Mycobacterium bovis BCG ATCC 35734 assessed as reduction in TDM level at 1XMIC90 treated for 1 hr followed by incubation with [14C]acetate for 1 to 3 hrs by thin layer chromatography. Conditions: time 2-4 hrs, TDE = time-dependent effect.
The test system is the same in experiment [5]. Kind of experiment: Inhibition of MmpL3 C1932G/F644L mutant in Mycobacterium bovis BCG B47-4 assessed as increase in TMM level at 1XMIC90 treated for 1 hr followed by incubation with [14C]acetate for 1 to 3 hrs by thin layer chromatography. As to conditions: time 2-4 hrs.
The test system is the same in experiment [6]. Kind of experiment: Inhibition of MmpL3 in Mycobacterium bovis BCG ATCC 35734 assessed as increase in TMM level at 1XMIC90 treated for 1 hr followed by incubation with [14C]acetate for 1 to 3 hrs by thin layer chromatography. Conditions: time 2-4 hrs, TDE = time-dependent effect.

Regarding `CC[C@@H](CO)NCCN[C@@H](CC)CO`, the inhibition entry in experiment [1] and in experiment [2] was “inactive” throughout.
Consider `FC(F)(F)c1ccc2cc(CNC3CCCCCCC3)[nH]c2c1`, for which the inhibition entry in experiment [3] and in experiment [5] was “inactive” each time. Also, the inhibition result in experiment [4] and in experiment [6] was “Tde” in each case.
`O=C(NC1CCCCCCC1)c1cc2ccccc2s1`: the inhibition result in experiment [3] and in experiment [5] was “inactive” each time.
`c1ccc2sc(CNC3CCCCCCC3)cc2c1`: the inhibition result in experiment [3] and in experiment [5] was “inactive” throughout. Also, the inhibition entry in experiment [4] and in experiment [6] was “Tde” throughout.
In the case of `Cc1c(CN2CCN(C)CC2)cc(-c2ccc(Cl)cc2)n1-c1ccc(Cl)cc1`, the inhibition result in experiment [3] and in experiment [5] was “inactive” in each case. The inhibition result in experiment [4] and in experiment [6] was “Tde” in each case.
Turning to `c1ccc2[se]c(CNC3CCCCCCC3)cc2c1`, the inhibition result in experiment [3] and in experiment [5] was “inactive” in each case.
For the compound `O=C(NC1CCCCCCC1)c1cc2ccc(C(F)(F)F)cc2[nH]1`, the inhibition result in experiment [3] and in experiment [5] was “inactive” throughout. The inhibition result in experiment [4] and in experiment [6] was “Tde” each time.
For `O=C(NC1CCCCCCC1)c1cc2ccccc2[se]1`, the inhibition entry in experiment [3] and in experiment [5] was “inactive” each time.
